According to PubChem BioAssay (NCI):
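Compound exposure: 48 hours, 5 concentrations, 96-well plates. At the TGI there is no net growth.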

Assays:
Experiment in all cases: NCI anticancer screen, dose series, 48 h
ACHN renal = test system: ACHN renal
OVCAR-5 ovarian = test system: OVCAR-5 ovarian
K-562 leukemia = test system: K-562 leukemia
HCT-15 colon = test system: HCT-15 colon
PC-3 prostate = test system: PC-3 prostate
COLO 205 colon = test system: COLO 205 colon
NCI-H522 lung = test system: NCI-H522 lung
SK-MEL-5 melanoma = test system: SK-MEL-5 melanoma
HCT-116 colon = test system: HCT-116 colon
NCI-H226 lung = test system: NCI-H226 lung
HOP-92 NSCLC = test system: HOP-92 NSCLC
HOP-62 NSCLC = test system: HOP-62 NSCLC
MDA-MB-435 = test system: MDA-MB-435
UACC-62 melanoma = test system: UACC-62 melanoma
MDA-N = test system: MDA-N
786-0 renal = test system: 786-0 renal
A549 NSCLC = test system: A549 NSCLC
HS 578T breast = test system: HS 578T breast

| Compound | TGI (ACHN renal) [µM] | TGI (OVCAR-5 ovarian) [µM] | TGI (K-562 leukemia) [µM] | TGI (HCT-15 colon) [µM] | TGI (PC-3 prostate) [µM] | TGI (COLO 205 colon) [µM] | TGI (NCI-H522 lung) [µM] | TGI (SK-MEL-5 melanoma) [µM] | TGI (HCT-116 colon) [µM] | TGI (NCI-H226 lung) [µM] | TGI (HOP-92 NSCLC) [µM] | TGI (HOP-62 NSCLC) [µM] | TGI (MDA-MB-435) [µM] | TGI (UACC-62 melanoma) [µM] | TGI (MDA-N) [µM] | TGI (786-0 renal) [µM] | TGI (A549 NSCLC) [µM] | TGI (HS 578T breast) [µM] |
| --- | --- | --- | --- | --- | --- | --- | --- | --- | --- | --- | --- | --- | --- | --- | --- | --- | --- | --- |
| CSC1(C)C(=O)Nc2c(OCc3ccccc3)cc([N+](=O)[O-])cc21 (stereo unspecified) | > 100 | > 100 | > 100 | > 100 | > 100 | > 100 | > 100 | > 100 | > 100 | 31 | > 100 | > 100 | > 100 | > 100 | > 100 | 31 | > 100 | 32.6 |
| CSC1NC(c2ccccc2)=C(C#N)C(=O)N1C1OCC(OC(C)=O)C(OC(C)=O)C1OC(C)=O (stereo unspecified) | > 100 | > 100 | > 100 | > 100 | > 100 | > 100 | > 100 | > 100 | > 100 | > 100 | > 100 | > 100 | > 100 | > 100 | > 100 | > 100 | > 100 | > 100 |
| COc1ccc(/C=C/C(=O)/C=C/c2ccc(OC)cc2OC)c(OC)c1 | 21.8 | 36.5 | 8.4 | 20 | 44.2 | 51.9 | 8.7 | 16.9 | 21.3 | 37.6 | 67.5 | 81.1 | 8.24 | 52.5 | 6 | 29 | 46.3 | > 100 |
| COc1ccc([N+](=O)[O-])c2c(NCCCN(C)C)ccnc12 | 14.5 | 42.4 | 5.73 | 4.95 | 30.8 | 7.17 | 3.34 | 5.22 | 22.8 | 30.2 | 4.38 | 15.6 | 23.1 | 11.4 | 27 | 30.6 | 23.8 | 34.6 |
| c1cc(-c2ccc(-c3ccc(-c4ccc(-c5ccncc5)o4)cc3)o2)ccn1 | 64.6 | 55.6 | 39 | 28.3 | 36.4 | 30.2 | 31.7 | 26 | 29.6 | 56 | 83.7 | 55.3 | 33.4 | 32.9 | 31.1 | 30.7 | 35.7 | > 100 |
| CC(O)C1(CNc2cc(Cl)nc(N)n2)CCCCC1 (stereo unspecified) | > 100 | > 100 | > 100 | > 100 | > 100 | > 100 | > 100 | > 100 | > 100 | > 100 | > 100 | > 100 | > 100 | > 100 | > 100 | > 100 | > 100 | > 100 |
| COc1cc(-c2nc3ccc(N4CCN(C)CC4)cc3[nH]2)c(OC)c2[nH]c(COC(C)=O)nc12 | > 100 | > 100 | > 100 | > 100 | > 100 | > 100 | > 100 | > 100 | > 100 | > 100 | > 100 | > 100 | > 100 | > 100 | > 100 | > 100 | > 100 | > 100 |
